Measured values published in US6313132A, “Therapeutically active diarylpropylamines; their pharmaceutically acceptable salts; a method for their preparation and method for their use” (Pharmacia AB, priority 1999, dated 2001).
Where a name gives a salt, the structure may show the parent alone. Read-outs that look alike come from different tables or passages of the source.

Target: T1, muscarinic receptor (Cavia porcellus, UniProt H0W1Z3)
T1 construct: Smooth muscle strips of the urinary bladder were dissected in a Krebs-Henseleit solution; from tissue; host or cells: guinea pig urinary bladder smooth muscle strips
T1 sequence (H0W1Z3 1-590): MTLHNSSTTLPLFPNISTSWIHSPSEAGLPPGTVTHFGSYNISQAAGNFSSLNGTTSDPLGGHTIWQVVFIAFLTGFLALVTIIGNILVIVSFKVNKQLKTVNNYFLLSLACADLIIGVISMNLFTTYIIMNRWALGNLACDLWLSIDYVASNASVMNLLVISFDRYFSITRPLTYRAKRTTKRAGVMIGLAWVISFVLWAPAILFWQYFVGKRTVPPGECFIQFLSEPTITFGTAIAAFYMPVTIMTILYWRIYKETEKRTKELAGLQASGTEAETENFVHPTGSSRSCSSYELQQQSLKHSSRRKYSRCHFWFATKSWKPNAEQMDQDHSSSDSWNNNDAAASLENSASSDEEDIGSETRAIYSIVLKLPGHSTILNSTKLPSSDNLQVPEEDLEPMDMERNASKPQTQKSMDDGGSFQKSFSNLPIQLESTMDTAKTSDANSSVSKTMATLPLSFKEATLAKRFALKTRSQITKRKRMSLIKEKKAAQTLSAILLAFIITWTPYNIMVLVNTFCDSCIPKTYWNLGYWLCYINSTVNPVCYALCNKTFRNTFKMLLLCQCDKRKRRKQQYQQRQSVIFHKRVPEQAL
Experiment: Functional in vitro studies: antagonism of carbachol-induced contraction of urinary bladder smooth muscle strips
Format: cell-based, guinea pig

[1] = male guinea pig urinary bladder strips, carbachol agonist, 60 min incubation with antagonist, Krebs-Henseleit pH 7.4, 37° C., KB from dose ratios (Schild), read-out: KB-value
[2] = male guinea pig urinary bladder strips, carbachol agonist, 60 min incubation with antagonist, Krebs-Henseleit pH 7.4, 37° C., KB from dose ratios (Schild), 60 min, read-out: KB-value

Experimental: Functional in Vitro Studies
Male guinea pigs, weighing about 300 g, were killed by a blow on the neck and exsanguinated. Smooth muscle strips of the urinary bladder were dissected in a Krebs-Henseleit solution (pH 7.4). The strip preparations were vertically mounted between two hooks in thermostatically controlled (37° C.) organ baths (5 ml). One of the hooks was adjustable and connected to a force transducer (FT 03, Grass Instruments). The Krebs-Henseleit solution was continuously bubbled with carbogen gas (93.5% O2 /6.5% CO2) to maintain the pH at 7.4. Isometric tension was recorded by a Grass Polygraph (Model 79D). A resting tension of approximately 5 mN was initially applied on each muscle strip and the preparations were allowed to stabilise for at least 45 min. The resting tension was repeatedly adjusted and the preparations were washed several times during the stabilisation period.
Carbachol (carbamylcholine chloride) was used as the standard muscarinic receptor agonist. In each experiment, the viability of the preparations and the reproducibility of their contractile responses were initially tested by two consecutive additions of a submaximal concentration (3×10^-6 M) of carbachol. A concentration-response curve to carbachol was then generated by cumulative addition of carbachol to the organ-bath (i.e., stepwise increase of the agonist concentration until the maximal contractile response was reached), followed by washing out and a resting period of at least 15 min. before a fix concentration of the test compound (antagonist) was added to the organ-bath. After 60 min. of incubation with the antagonist, a second cumulative concentration-responsecurve to carbachol was generated. Responses were expressed as percent of the maximal response to carbachol. EC50 -values for carbachol in the absence (control) and presence of antagonist were graphically derived and dose ratios (r) were calculated. Dissociation constants, KB, for the antagonists were calculated using equation (1) (Schild, H. I., Br. J. Pharmacol. Chemother. 1949, 4, 277-280), where [A] is the concentration of test compound:

Kb [1] [nM]	Structure (SMILES)	also measured
2	Cc1ccc(O)c(C(CCN(C(C)C)C(C)C)c2cccs2)c1 (single isomer, unassigned) [Example 55, (R*) N,N-Diisopropyl-3-(2-hydroxy-5-methylphenyl)-3-(2-thienyl)propanamine]	
360	Cc1ccc(O)c(C(CCN(C(C)C)C(C)C)c2cccs2)c1 (single isomer, unassigned) [Example 56, (S*) N,N-Diisopropyl-3-(2-hydroxy-5-methylphenyl)-3-(2-thienyl)propanamine]	
1.91	CC(C)N(CC[C@H](c1ccccc1)c1cc(CCC#N)ccc1O)C(C)C [Example 24, (R)-N,N-Diisopropyl-3-[5-(2-cyanoethyl)-2-hydroxyphenyl]-3-phenylpropanamine hydrochloride]	
7.1	CC(C)N(CC[C@H](c1ccccc1)c1cc(N)ccc1O)C(C)C [Example 27, (R)-(N,N-Diisopropyl-3-(5-amino-2-hydroxyphenyl)-3-phenylpropanaminedihydrochloride]	
8.55	CC(C)N(CC[C@H](c1ccccc1)c1cc(N=[N+]=[N-])ccc1O)C(C)C [Example 28, (R)-N,N-Diisopropyl-3-(5-azido-2-hydroxyphenyl)-3-phenylpropanamine hydrochloride]	
1.5	CC(C)N(CC[C@H](c1ccccc1)c1cc(CCCO)ccc1O)C(C)C [Example 29, (R) -N,N-Diisopropyl-3-[2-hydroxy-5-(3-hydroxypropyl)phenyl]-3-phenylpropanamine hydrochloride]	
139	CCNCc1ccc(O)c([C@H](CCN(C(C)C)C(C)C)c2ccccc2)c1 [Example 30, N,N-Diisopropyl-3-(5-ethylaminomethyl-2-hydroxyphenyl)-3-phenylpropanamine]	
14	CN(CCC(c1ccccc1)c1ccccc1O)C1CCC1 (stereo not drawn) [Example 31, N-Cyclobutyl-N-methyl-3-(2-hydroxyphenyl)-3-phenylpropanamine hydrochloride]	
36	CN(CCC(c1ccccc1)c1ccccc1O)C1CCCC1 (stereo not drawn) [Example 32, N-Cyclopentyl-N-methyl-3-(2-hydroxyphenyl)-3-phenylpropanamine hydrochloride]	
56	CC(C)N(CCC(c1ccccc1)c1ccccc1N)C(C)C (stereo not drawn) [Example 33, N,N-Diisopropyl-3-(2-aminophenyl)-3-phenylpropanamine hydrochloride]	
803	CC(C)N(CCC(c1ccccc1)c1nc2ccccc2o1)C(C)C (stereo not drawn) [Example 34, N,N-Diisopropyl-3-(benzoxazol-2-yl)-3-phenylpropanamine, hydrochloride]	
1770	CC(C)N(CCC(c1ccccc1)c1cnco1)C(C)C (stereo not drawn) [Example 35, N,N-Diisopropyl-3-(oxazol-5-yl)-3-phenylpropanamine hydrochloride]	
520	CC(C)N(CCC(c1ccccc1)c1ncco1)C(C)C (stereo not drawn) [Example 37, N,N-Diisopropyl-3-(oxazol-2-yl)-3-phenylpropanamine hydrochloride]	
207	CC(C)N(CCC(c1ccccc1)c1nccs1)C(C)C (stereo not drawn) [Example 38, N,N-Diisopropyl-3-phenyl-3-(thiazol-2-yl)propanamine hydrochloride]	
235	Cc1csc(C(CCN(C(C)C)C(C)C)c2ccccc2)n1 (stereo not drawn) [Example 39, N,N-Diisopropyl-3-(4-methylthiazol-2-yl)-3-phenyl-propanamine hydrochloride]	
814	CC(C)N(CCC(c1ccccc1)c1cncs1)C(C)C (stereo not drawn) [Example 40, N,N-Diisopropyl-3-(thiazol-5-yl)-3-phenylpropanamine hydrochloride]	
7.6	CC(C)N(CCC(c1cccs1)c1ccccc1O)C(C)C (stereo not drawn) [Example 41, N,N-Diisopropyl-3-(2-hydroxyphenyl)-3-(2-thienyl)-propanamine fumarate]	
286	CC(C)N(CCC(c1cccs1)c1ccc(O)cc1O)C(C)C (stereo not drawn) [Example 42, N,N-Diisopropyl-3-(2,4-dihydroxyphenyl)-3-(2-thienyl)propanamine]	
29	COc1ccccc1C(CCN(C(C)C)C(C)C)c1cccs1 (stereo not drawn) [Example 43, N,N-Diisopropylamine-3-(2-methoxyphenyl)-3-(2-thienyl)propanamine, fumarate]	
2290	COc1ccc(C(CCN(C(C)C)C(C)C)c2cccs2)c(OC)c1 (stereo not drawn) [Example 44, N,N-Diisopropyl-3-(2,4-dimethoxyphenyl)-3-(2-thienyl)propanamine fumarate]	

Continued, molecule first:

Structure (SMILES)	Kb [1] [nM]	also measured
CC(C)N(CC[C@H](c1ccccc1)c1cc(C(O)CO)ccc1O)C(C)C (single isomer, unassigned; (+)) [Example 15, (+)-N,N-Diisopropyl-3(R)-[5-(1(R*),2-dihydroxyethyl)-2-hydroxyphenyl]-3-phenylpropanamine fumarate]		Kb [2]: 15 nM
CC(C)N(CC[C@H](c1ccccc1)c1cc(C(O)CO)ccc1O)C(C)C (single isomer, unassigned; (-)) [Example 16, (-)-N,N-Diisopropyl-3(R)-[5-(1(S*),2-dihydroxyethyl) 2-hydroxyphenyl]-3-phenylpropanamine fumarate]		Kb [2]: 32 nM
Cc1ccc(O)c(C(CCN(CCOCCO)C(C)C)c2ccccc2)c1 (stereo not drawn) [Example 1, N-(5-Hydroxy-3-oxapentyl)-N-isopropyl-3-(2-hydroxy-5-methylphenyl)-3-phenylpropanamine hydrochloride]	499	
Cc1ccc(O)c(C(CCN(C)C2CCCCC2)c2ccccc2)c1 (stereo not drawn) [Example 3, N-Cyclohexyl-N-methyl-3-(2-hydroxy-5-methylphenyl)-3-phenylpropanamine hydrochloride]	236	
CC(C)N(CCC(c1ccccc1)c1ccccc1C(F)(F)F)C(C)C (stereo not drawn) [Example 4, N,N-Diisopropyl-3-(2-trifluoromethylphenyl)-3-phenylpropanamine hydrochloride]	132	
CC(C)N(CCC(c1cccnc1)c1ccccc1O)C(C)C (stereo not drawn) [Example 5, N,N-Diisopropyl-3-(2-hydroxyphenyl)-3-(3-pyridyl)-propanamine dihydrochloride]	336	
CC(C)N(CCC(c1ccccc1)c1ccccc1F)C(C)C (stereo not drawn) [Example 6, N,N-Diisopropyl-3-(2-fluorophenyl)-3-phenylpropanamine hydrochloride]	10	
CC(C)N(CC[C@H](c1ccccc1)c1cc(C=O)ccc1O)C(C)C [Example 7, (R)-N,N-Diisopropyl-3-(5-formyl-2-hydroxyphenyl)-3-phenylpropanamine hydrochloride]	13	
CC(C)N(CC[C@H](c1ccccc1)c1cc(CNCCOCCO)ccc1O)C(C)C [Example 8, (R)-N,N-Diisopropyl-3-[5-(7-hydroxy-2-aza-5-oxaheptyl)-2-hydroxyphenyl]-3-phenylpropanazine di-(S)-mandelate]	26	
COC(=O)c1ccc(O)c([C@H](CCN(C(C)C)C(C)C)c2ccccc2)c1 [Example 9, (R)-N,N-Diisopropyl-3-(2-hydroxy-5-methyloxycarbonyl-phenyl)-3-phenylpropanamine hydrochloride]	3.8	
CC(C)N(CCC(c1ccccc1)c1ccccc1CO)C(C)C (stereo not drawn) [Example 10, N,N-Diisopropyl-3-(2-hydroxymethyl)phenyl-3-phenylpropanamine hydrochloride]	171	
CC(C)N(CC[C@@H](c1ccccc1)c1cc(CCO)ccc1O)C(C)C [Example 11, (S)-N,N-Diisopropyl-3-[2-hydroxy-5-(2-hydroxyethyl)phenyl]-3-phenylpropanamine hydrochloride]	431	
CC(C)N(CC[C@H](c1ccccc1)c1cc(CCO)ccc1O)C(C)C [Example 12, (R)-N,N-Diisopropyl-3-[2-hydroxy-5-(2-hydroxyethyl)phenyl]-3-phenylpropanamine hydrochloride]	1.18	
CC(=O)c1ccc(O)c([C@H](CCN(C(C)C)C(C)C)c2ccccc2)c1 [Example 13, (R)-N,N-Diisopropyl-3-(5-acetyl-2-hydroxyphenyl)-3-phenylpropanamine hydrochloride]	15	
CC(O)c1ccc(O)c([C@H](CCN(C(C)C)C(C)C)c2ccccc2)c1 (stereo partly drawn) [Example 14, N,N-Diisopropyl-3(R)-[2-hydroxy-5-(1-hydroxyethyl)phenyl]-3-phenylpropanamine fumarate]	4.5	
CC(C)N(CC[C@H](c1ccccc1)c1cc(CCCCCCO)ccc1O)C(C)C [Example 17, (R)-[N,N-Diisopropyl-3-[2-hydroxy-5-(6-hydroxyhexyl)phenyl]-3-phenylpropanamine hydrochloride]	3.5	
CC(C)N(CCc1ccc(O)c([C@H](CCN(C(C)C)C(C)C)c2ccccc2)c1)C(C)C [Example 18, (R)-N,N-Diisopropyl-3-[5-(2-diisopropylaminoethyl)-2-hydroxyphenyl]-3-phenylpropanamine hydrochloride]	172	
CCOCc1ccc(O)c([C@H](CCN(C(C)C)C(C)C)c2ccccc2)c1 [Example 19, (R)-N,N-Diisopropyl-3-(5-ethoxymethyl-2-hydroxyphenyl)-3-phenylpropanamine]	2.9	
CC(C)NCCC(c1ccccc1)c1cc(C(=O)O)ccc1O (stereo not drawn) [Example 20, N-Isopropyl-3-(5-carboxy-2-hydroxyphenyl)-3-phenylpropanamine hydrochloride]	3320	
CC(C)N(CC[C@H](c1ccccc1)c1cc(CCCN)ccc1O)C(C)C [Example 22, (R)-N,N-Diisopropyl-3-[5-(3-aminopropyl)-2-hydroxyphenyl]-3-phenylpropanamine dihydrochloride]	2.8	
CC(=O)NCCCc1ccc(O)c([C@H](CCN(C(C)C)C(C)C)c2ccccc2)c1 [Example 23, (R)-N,N-Diisopropyl-3-[5-3-(acetamidopropyl)-2-hydroxyphenyl]-3-phenylpropanamine hydrochloride]	1.05	
CC(C)N(CCC(c1ccccc1)c1cnc[nH]1)C(C)C (stereo not drawn) [Example 36, N,N-Diisopropyl-3-(imidazol-4(5)-yl)-3-phenylpropanamine dihydrochloride]		Kb: 2640 nM
